Reference: patent US8986733B2, “Materials and methods for nerve repair” (University of Florida Research Foundation, Inc., priority 2001, dated 2015)

Tested on: rat sciatic nerve
Assay: Interpositional acellular nerve grafting, GAP-43 axon scoring
Format: in vivo
Text: Preparation of acellular nerve grafts treated with chondroitinase. Adult (180-200 g) female SPRAGUE DAWLEY rats (HARLAN, Indianapolis, Ind.) were used as nerve donors and recipient hosts. Donor rats were anesthetized with halothane and decapitated. Sciatic nerves were exposed through a gluteal muscle-splitting incision and isolated free of underlying fascia. A 15-mm nerve segment was excised rostral to the bifurcation into common peroneal and tibial nerves. The segments were rinsed with cold sterile Ringer's solution, stabilized by pinning the ends to a thin plastic support, and transferred to a cryogenic vial. The vials were submerged in liquid nitrogen for 2 minutes and then transferred to a 37° C. water bath for 2 minutes. This freeze/thaw cycle was repeated, yielding acellular nerve grafts that were then stored in liquid nitrogen. On the day before grafting, the nerve grafts were warmed to room temperature and incubated in 100 μl phosphate buffered saline pH 7.4 (PBS) containing 2 units/ml chondroitinase ABC (SIGMA, St. Louis, Mo.) or in PBS (vehicle) only for 16 hours at 37° C. The grafts were rinsed twice with Ringer's and kept on ice prior to use. The chondroitinase ABC preparation was highly purified and stated by the manufacturer to be essentially free of protease activity.
Interpositional nerve grafting for chondroitinase experiments. Twelve rats received bilateral acellular nerve grafts, one chondroitinase-treated and one vehicle-treated graft. Host rats were deeply anesthetized using xylazine (15 mg/kg, i.m.) and ketamine (110 mg/kg, i.p.). The sciatic nerve was exposed and supported by a plastic insert placed between the nerve and underlying tissue. The region of nerve halfway between the sciatic notch and bifurcation was first coated with fibrin glue. […]
The main grafts were sectioned serially on the transverse plane in recorded measure to assess the extent of axonal growth by microscopy. […] GAP-43-positive axon profiles were scored using IMAGE-PRO PLUS software (MEDIA CYBERNETICS, Silver Springs, Md.). […]

chondroitinase ABC
latency of axonal regeneration into acellular nerve grafts (4-day and 8-day grafts): decreases the latency | axonal penetration vs control grafts (4-day grafts, 0.3 mm from the host-graft interface): five-fold greater | average number of axons (GAP-43-immunopositive profiles) entering grafts vs control grafts (8-day grafts, en bloc treated acellular syngrafts): more than three-fold greater
